Results as given in patent publication US8765791B2, “Method of treating cancer using a neuropeptide Y 5R (NP Y5R) antagonist” (University Health Network, priority 2008, dated 2014).

Experiments:
[1] = tested on: Hodgkin Lymphoma cells, HD-MYZ; experiment: Hodgkin lymphoma xenograft model, MK0557 vs AVASTIN (Example 14); type: in vivo, NOD-SCID mice; details: for inhibition rate (tumor volume) / inhibition rate (tumor weight): versus vehicle
Text: Hodgkin lymphoma cells, HD-MYZ, were implanted in NOD-SCID mice. […] Tumor volume and tumor growth were monitored during the experiment.

[2] = tested on: Hodgkin Lymphoma cells, HD-MYZ; experiment: Hodgkin lymphoma xenograft model (Example 12); type: in vivo, NOD-SCID mice; details: 30 mg/kg i.p. 3/week, approximately 2 weeks
Text: Hodgkin lymphoma cells, HD-MYZ (1 million), were implanted s.c. on the right flank of NOD-SCID mice (Cat#001303, female, 4-6 weeks from Jackson laboratories, Bar Harbor, Me.). The mice were divided into four groups, 5 mice for each group. […] The tumor growth was monitored during the experiment. […] (FIG. 13)

[3] = tested on: Ovarian cancer cells, Caov-3; experiment: ovarian cancer xenograft model (Example 10); type: in vivo, CB17-SCID mice
Method: Ovarian cancer cells, Caov-3 (2 Million), were implanted in CB17-SCID mice. The mice were treated with MK0557 at 30 mg/kg or vehicle (15% of 0.5% of CMC (carboxymethylcellulose, low viscosity) and 85% of 0.2% Tween 80 in water) intraperitoneally daily for the first week followed by once every two days injections. Both the tumor growth and body weights were monitored for the duration of the experiment.

[4] = tested on: Breast cancer cells, MDA MB 468; experiment: breast cancer xenograft model, MK0557 and 5-FU (Example 15); type: in vivo, CB17-SCID; details: MK0557 alone, 30 mg/kg ip. 3/week
Method: Breast cancer cells, MDA MB 468, were injected into CB17-SCID. The treatments were started day 14 after tumor implantation. […] Tumor volume and tumor growth were monitored during the experiment.

[5] = tested on: Hodgkin Lymphoma cells, HD-MYZ; experiment: Hodgkin's lymphoma xenograft model, MK-0557 and 200464 (Example 16); type: in vivo
Text: Hodgkin lymphoma cells, HD-MYZ, were implanted in NOD-SCID mice, female, 4-6 weeks from Jackson's Laboratory (Maine). The treatments were started day 6 after tumor implantation. The mice were divided to six groups, 4-5 mice from each group. The treatment started with a tumor volume of about 70 mm3 after tumor implantation.

[6] = tested on: Breast cancer cells, MDA MB 468; experiment: breast cancer xenograft model (Example 11); type: in vivo, SCID mice; details: 30 mg/kg i.p. 3/week, approximately 4 weeks
Method: Breast cancer cells, MDA MB 468 (12 million), were injected subcutaneously (s.c.) on the neck of SCID mice (CB17, female, 4-6 weeks old) (Charles River, Wilmington, Mass.). The mice were divided into four groups, 5 mice for each group. The treatments were started when the tumor volume reached about 100 mm^3, day 22 after tumor implantation. […] The tumor sizes were monitored every 3 or 4 days. […] (FIG. 12)

HUV-EC-C cells = experiment: in vitro angiogenesis assay, tube formation; type: cell-based; details: HUV-EC-C on ECMatrix, after 5 hours
Method: HUV-EC-C cells were purchased from ATCC and routinely cultured in Ham's F12K medium supplemented with 10% FBS, 2 mM L-glutamine, 1.5 g/L sodium bicarbonate, 0.1 mg/ml heparin and 0.03 mg/ml endothelial cell growth supplement (ECGS).
An In Vitro Angiogenesis Assay kit from Chemicon (Cat#ECL625) was used for testing HUV-EC-C tube formation. Cells were incubated on ECMatrix coated 96-well plate at 8×10^3 cells per well in growth medium with or without NPY, its antagonist MK0557, or DMSO as a control. Inhibition of in vitro endothelial tubule formation by MK0557 was quantitated from photographs after 5 hours by counting the number of tubes in the well (FIG. 7).

[7] = 15 mg/kg i.p. every day×3 weeks
[8] = 60 mg/kg p.o. every day×3 weeks
[9] = group 4: MK 0557 30 mg/kg i.p. 3 times for each week, versus vehicle

O=C1O[C@]2(CC[C@H](C(=O)Nc3ccn(-c4ccccc4F)n3)CC2)c2cnccc21 [MK-0557, trans-N-[1-(2-fluorophenyl)-3-pyrazolyl]-3-oxospiro[6 azaisobenzofuran-1(3H), 1′-cyclohexane]-4′carboxamide]
Mean Tumor Volume [1, 7]: 698.76±61.19 mm^3
Mean Tumor Weight [1, 7]: 0.40 ± 0.09 g
inhibition rate (tumor volume) [1, 7]: 73.13%
inhibition rate (tumor weight) [1, 7]: 84.19%
Mean Tumor Volume [1, 8]: 671.97±96.89 mm^3
Mean Tumor Weight [1, 8]: 0.43 ± 0.17 g
inhibition rate (tumor volume) [1, 8]: 74.16%
inhibition rate (tumor weight) [1, 8]: 83.0%
tumor growth [2]: inhibited tumor growth
change in body weight ([3]; 30 mg/kg intraperitoneally): not significantly affected
tumor growth ([3]; 30 mg/kg intraperitoneally daily first week then once every two days): inhibited tumor growth
Mean Tumor Volume [4]: 392.73±80.63 mm^3
Mean Tumor Weight [4]: 0.1582 ± 0.0345 g
inhibition rate (tumor volume) ([4]; versus vehicle): 38.85%
inhibition rate (tumor weight) ([4]; versus vehicle): 38.59%
tolerability of the doses by the mice ([5]; doses of Example 16, except group 6): well tolerated
Mean Tumor Volume ([5]; group 4: MK 0557 30 mg/kg i.p. 3 times for each week): 435.54+/−72.17 mm^3
inhibition rate (tumor volume) [5, 9]: 70.94%
inhibition rate (tumor weight) [5, 9]: 67.30%
Mean Tumor Weight ([5]; group 4: MK 0557 30 gm/kg i.p. 3 times for each week): 0.3048 ± 0.0696 g
tumor growth [6]: inhibited tumor growth
tube formation (HUV-EC-C cells): inhibits tube formation
